Assay results as given in PMC4514850, “A Novel TGR5 Activator WB403 Promotes GLP-1 Secretion and Preserves Pancreatic β-Cells in Type 2 Diabetic Mice” (PLoS ONE, 2015).

Experiments:
TGR5 = settings: moderate bile acids; ref [22], [34]; cited from earlier work
hTGR5 = target: T1, hTGR5 (Homo sapiens, UniProt Q8TDU6); test: human TGR5 CRE-luciferase assay in co-transfected 293T cells; type: cell-based
T1 construct: expressed in transfected cells; host or cells: 293T cells, transient transfection with pTGR5 (gift from Prof. Johan Auwerx)
T1 sequence (Q8TDU6 1-330): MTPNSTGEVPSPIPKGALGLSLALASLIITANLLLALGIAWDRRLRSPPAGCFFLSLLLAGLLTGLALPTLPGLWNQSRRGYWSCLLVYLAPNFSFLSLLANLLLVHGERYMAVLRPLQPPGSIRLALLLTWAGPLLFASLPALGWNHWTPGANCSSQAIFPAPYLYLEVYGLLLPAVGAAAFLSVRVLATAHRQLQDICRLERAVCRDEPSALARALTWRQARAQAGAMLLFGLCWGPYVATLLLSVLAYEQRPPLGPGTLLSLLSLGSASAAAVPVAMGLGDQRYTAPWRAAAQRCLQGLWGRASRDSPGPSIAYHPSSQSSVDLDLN
Procedure: For human TGR5 luciferase (luc) assay, 293T cells were co-transfected with pCRE-luc, pTGR5 (kind gift from Prof. Johan Auwerx, Ecole Polytechnique Fédérale de Lausanne, Lausanne, Switzerland) and pRenilla (Promega, USA). WB403 was added 5 h later. Cells were harvested after 16 h and subjected to luciferase analysis on Lumistar Optima chemiluminescent detector (BMG labtech, Germany). For cAMP testing, 293T cells transiently transfected with pTGR5 or pGPR119 (GeneCopoeia, USA) were washed by FBS-free DMEM, and stimulated with WB403 in FBS-free DMEM containing 3-isobutyl-1-methyl-xanthine (IBMX, Sigma). Cell lysates were collected 30 min later and used for cAMP ELISA assay. FLIPR Calcium 5 assay kit (Molecular Devices, USA) was used for calcium mobilization assay. 293-GPR40 stable cells (kindly provided by Prof. Naiming Zhou of Zhejiang University, Hanzhou, China) or 293 cells transient transfected with GPR120 were seeded at 50,000 cells per well in black-walled clear-bottomed 96-well plates (Costar). An equal volume of loading buffer containing Fluo 4-AM was added the following day and cells were incubated for 1 h before stimulated with compounds. Increase of the intracellular Ca^2+ concentration was monitored by Flexstation 3 system (Molecular Devices, USA).
(§1) Fig 1 WB403 activated TGR5 and promoted active GLP-1 secretion. (A) WB403 stimulated hTGR5 in CRE-luciferase report system at the concentration range of 1–20 μmol/l. (B) WB403 stimulated hTGR5 specific cAMP accumulation at the concentration range of 1–50 μmol/l. n = 3. **p<0.01, ***p<0.001 vs. DMSO (+TGR5) group. (C) The hTGR5 targeted CRE-luciferase activity of WB403 and ZY403. […] (D) Effect of WB403 and ZY403 on gallbladders of mice. Normal mice were fasted overnight and treated with compounds (200 mg/kg) or vehicle (DMSO) by ip injection. Gallbladders (GB) were removed 30 min later and volumes measured then normalized to body weight (B.W.). n = 10. **p<0.01 vs. vehicle group. (E) Structure of WB403 and ZY403. WB403 promoted GLP-1 secretion in NCI-H716 cells (F), primary enterocytes (G), and MIN6 cells (H). n = 3. *p<0.05, **p<0.01, ***p<0.001 vs. vehicle group. (I) WB403 promoted GLP-1 in ICR mice. n = 5. **p<0.01 vs. vehicle group. Values represent mean ± SEM.

gallbladders of mice = test: gallbladder filling in normal mice; type: in vivo; settings: 200 mg/kg ip, normal mice fasted overnight, gallbladders removed 30 min later, n = 10
Description: as §1

NCI-H716 cells = test: active GLP-1 secretion in NCI-H716 cells; type: cell-based, human; settings: 10 μmol/l, 30 min
Procedure: Endocrine differentiation was induced by seeding NCI-H716 cells in plates coated with Matrigel (Becton Dickinson). Cells were washed with RPMI-1640 medium without FBS and incubated in the same medium containing indicated compounds at 10 μmol/l. The condition medium was collected after 30 min. GLP-1 secretion in MIN6 or primary enterocytes was conducted similarly. To isolate primary enterocytes, ileum or colon was cut into 2 cm length, rinsed by PBS (pH7.2∼7.4) before dispersed in 10 mmol/l EDTA/PBS (pH7.4) for 15 min at room temperature, followed by pipetting up and down. Enterocytes were collected by filtration through a 70 μm cell strainer. To study the effect of WB403 on GLP-1 secretion in vivo, mice in group of three were fasted overnight and orally received 0, 50, 100 mg/kg of WB403 dispersed in 0.5% CMC with a DPP-4 inhibitor (5 mg/kg). There were 5 animals in each group. 2 g/kg glucose was administrated 30 min later and blood was collected 10 min after glucose challenge.
The GLP-1 (active) ELISA kit was purchased from Millipore, and insulin ELISA kit was from Mercodia. For quantitative determination of cAMP, a competitive enzyme immunoassay kit from R&D system was used. All immunoassays were performed according to manufacturers’ instructions.

db/db mice = test: pancreas histology (H&E, IHC) of treated db/db mice; type: in vivo
Procedure: Analysis of islet cell mass was performed using conventional methods. In brief, mice were sacrificed by cervical dislocation. The body part of the pancreas was rapidly excised, fixed in 10% neutral buffered formalin solution for 24 h and embedded in paraffin, then sectioned at 5 μm ready for hematoxylin and eosin (H&E) staining and immunohistochemistry staining (IHC). The latter was carried out using rabbit anti-insulin polyclonal antibody (Cat. no. 4590, 1:600) and rabbit anti-glucagon monoclonal antibody (Cat. no. 8233s, 1:200) from Cell Signaling Technology.
Fig 5 WB403 preserved the mass of pancreatic β-cells and normal distribution of α and β-cells. (A) H&E staining of pancreas from db/db mice, and statistical result. Islets were sized by the Image J analysis software on alternated pancreatic sections spaced each by 100 μm. (B) Immunohistochemical analysis of pancreatic sections by anti-insulin antibody or anti-glucagon antibody. (C) H&E staining of pancreas from HFD/STZ mice, and statistical result. Results are representative islets from each group. 1–5 in the column graph on the right represents normal mice, diabetic mice treated with vehicle, WB403 50 mg/kg, WB403 100 mg/kg, sitagliptin 100 mg/kg respectively (n = 5). *p<0.05, **p<0.01, ***p<0.001 vs. diabetes-vehicle group.

SMILES: C[C@H](CCC(=O)O)[C@H]1CC[C@H]2[C@@H]3[C@H](O)C[C@@H]4C[C@H](O)CC[C@]4(C)[C@H]3C[C@H](O)[C@]12C [CA, cholicacid]
- EC50 (TGR5): 7.72 µM

SMILES: CCc1cc(-c2nc(CCOCc3ccc(Br)cc3)cs2)ccn1 [ZY403]
- EC50 (hTGR5; CRE-luciferase, 293T cells, Fig 1C, read-out: EC50, hTGR5 targeted CRE-luciferase activity): 1.3 µM
- TGR5 luciferase activity in primary screen (fold increase compared to DMSO control) (hTGR5; screen of 100 compounds, S1 Fig): highest luciferase activity
- gallbladder filling (gallbladders of mice): caused gallbladder filling
- GLP-1 stimulation in NCI-H716 cells (NCI-H716 cells): did not show a strong stimulation for GLP-1 activity

SMILES: N[C@@H](CC(=O)N1CCn2c(nnc2C(F)(F)F)C1)Cc1cc(F)c(F)cc1F [sitagliptin, sitagliptin phosphate, reference compound]
- islet area vs vehicle (db/db mice; H&E, after 4-week treatment): bigger islet area as compared to the vehicle mice, though no significant difference was found
- α-cell and β-cell distribution in islets (db/db mice; IHC anti-insulin / anti-glucagon): significantly reduced α-cell in the islet core area and restored the normal cell distribution pattern
